This data set deals with CLL cells. Particulars: freshly isolated CLL cells.

Regarding `COc1cc2c(cc1O)CC[C@@H]1[C@@H]2CC[C@]2(C)[C@@H](O)CC[C@@H]12` [2-ME, 2-methoxyestradiol], the percent cytotoxicity (at 10 μM, 72 hours) was 71%. In addition, the EC50 (read-out: effective dose for 50% killing (ED50), incubated 72 hours) is 7.5 µM.

The values are drawn from patent US8980569B2, “Chronic lymphocytic leukemia prognosis and treatment” (Duke University, priority 2007, dated 2015).
